Measurements published in patent publication US20160122723A1, “ENGINEERED THREE-DIMENSIONAL SKIN TISSUES, ARRAYS THEREOF, AND METHODS OF MAKING THE SAME” (ORGANOVO, INC., priority 2014, published 2016).
Where two headings read alike, the source gives them in different places.

Columns and labels:
Format in all cases: cell-based, human
[1] = tested on: bioprinted full thickness skin tissue; assay: Skin irritation test, LDH activity, 15 minute exposure, 24 well plate format (Example 5)
Excerpt: Bio-ink was generated by a cellular mixture of 100% primary adult human dermal fibroblasts (HDFa) in 8% gelatin (Novogel® 2.0) in a concentration of 50 million cells per milliliter. The cell: gelatin ratio was altered to further reduce the cellular density of the dermal sheet to better mimic dermal tissue in native skin. Three-dimensional bio-ink constructs were printed by continuous deposition using the Novogen Bioprinter® platform in a 2 mm×2 mm×0.5 mm base sheet to create a dermal structure resembling a sheet. A smaller syringe needle was used to achieve greater resolution at the reduced size. Instead of printing one 0.5 mm sheet with a 500 μm diameter syringe needle, two layers of 0.25 mm sheets printed with a 250 μm diameter needle. One tissue construct was printed per transwell-in a 24 well plate. The transwell printing surface contained a polytetrafluoroethylene (PTFE)-membrane coated with equimolar mixture of types I and III collagen (bovine) with pores 3 μm in-size. […] Cell paste was measured post print at 96.0% viable by trypan exclusion assay. […] IL-1α production (R&D Systems) was analyzed in a colorimetric assays per manufacturer's protocol. Media was analyzed for lactate dehydrogenase as a marker for cytotoxicity. IL-1α production was assessed as a complementary endpoint to classic cytotoxicity testing to improve predictability of irritants. […]

[2] = tested on: bioprinted full thickness skin tissue; assay: Skin irritation test, viability by alamar blue assay, 15 minute exposure, 24 well plate format (Example 5)
Excerpt: (§1) Bio-ink was generated by a cellular mixture of 100% primary adult human dermal fibroblasts (HDFa) in 8% gelatin (Novogel® 2.0) in a concentration of 50 million cells per milliliter. The cell: gelatin ratio was altered to further reduce the cellular density of the dermal sheet to better mimic dermal tissue in native skin. Three-dimensional bio-ink constructs were printed by continuous deposition using the Novogen Bioprinter® platform in a 2 mm×2 mm×0.5 mm base sheet to create a dermal structure resembling a sheet. A smaller syringe needle was used to achieve greater resolution at the reduced size. Instead of printing one 0.5 mm sheet with a 500 μm diameter syringe needle, two layers of 0.25 mm sheets printed with a 250 μm diameter needle. One tissue construct was printed per transwell-in a 24 well plate. The transwell printing surface contained a polytetrafluoroethylene (PTFE)-membrane coated with equimolar mixture of types I and III collagen (bovine) with pores 3 μm in-size. Epidermal cell paste containing a mixture of 100% primary neonatal human epidermal keratinocytes (HEKn) was then printed on top of the dermal bio-ink. Cell paste was measured post print at 96.0% viable by trypan exclusion assay. Cell number in deposited epidermal layer was estimated at 11,000 cells by cell counting on a Cell-O-Meter. Immediately following the print, constructs were placed in 4° C. for 10 minutes. This is a key step to harden the Novogel®, which helps to maintain the printed shape and improve construct to construct uniformity. Cold media was then added to the outer well of the transwell in a volume of 1 ml. The media used for subsequent growth and maintenance of the skin tissue was a 50:50 ratio of HDFa:HEKn media. The initial volume added was sufficient to submerge the structure. […] IL-1α production (R&D Systems) was analyzed in a colorimetric assays per manufacturer's protocol. Media was analyzed for lactate dehydrogenase as a marker for cytotoxicity. IL-1α production was assessed as a complementary endpoint to classic cytotoxicity testing to improve predictability of irritants. […]

[3] = tested on: bioprinted full thickness skin tissue; assay: Skin irritation test, IL-1α production, 15 minute exposure, 24 well plate format (Example 5)
Excerpt: as §1

[4] = tested on: bioprinted full thickness skin tissue; assay: Skin irritation test, macroscopic and histological analysis (H&E, CK5/IVL, CK10, collagen 3, PCNA, TUNEL) (Example 4); conditions: 1% for 1 hour
Excerpt: Bio-ink was generated by a cellular mixture of 100% primary adult human dermal fibroblasts (HDFa) in 8% gelatin (Novogel® 2.0) at a concentration of 100 million cells per milliliter. The cell: gelatin ratio was altered to reduce the cellular density of the dermal sheet to better mimic dermal tissue in native skin. Three-dimensional bio-ink constructs were printed by continuous deposition using the Novogen Bioprinter® platform in a 4 mm×4 mm×0.5 mm base to create a dermal structure resembling a sheet. One tissue construct was printed per transwell in a […]. The transwell printing surface contained a polytetrafluoroethylene (PTFE) membrane coated with equimolar mixture of types I and III collagen (bovine) with pores 3 μm in size. Epidermal cell paste containing a mixture of 100% primary neonatal human epidermal keratinocytes (HEKn) was then printed on top of the dermal bio-ink. Cell paste was measured post print at 87.1% viable by trypan exclusion assay. Cell numbers in the deposited epidermal layer was estimated at 60,000 cells by cell counting on a Cell-O-Meter. Immediately following the print, constructs were placed at 4° C. for 10 minutes. Cold media was then added to the outer well of the transwell in a volume of 3 ml. The media used for subsequent growth and maintenance of the skin tissue was a 50:50 ratio of HDFa:HEKn media. The initial volume added was sufficient to submerge the structure. All subsequent media changes used warmed media (37° C.) added to the outer well of the transwell and not to the inner basket. Media was changed 48 hours later and reduced to a volume of 1.5 ml per well to bring the structure to an air-liquid interface (ALI). Media and subsequently changed 48 hours after that (day 4) at a volume of 1.5 ml. On day 5, media was changed and further reduced to 1 ml per well and subsequently changed daily. On day 10, skin tissues were subject to a skin irritation test method using 1% Triton X 100. 1% Triton X-100™ is a known irritant and reference chemical currently used in other 3D skin models. Methods were based on OECD guidelines 439 and 431 for applying human skin models to in vitro skin irritation or corrosion, respectively. On day 10, conditioned media was saved (designated time=0) and 1 ml of fresh media was added to the outer well of the transwell. The printed skin tissue was then treated with 20 μl of PBS as a negative control or with 20 μl of 1% Triton X-100™ as a positive control and known irritant. Test substances were pipetted manually to the apical surface of the tissue. Triton X-100™ was diluted to a 1% aqueous solution in deionized water and sterile filtered through a […] filter before use. Samples were incubated for 30 minutes at 37° C. followed by 30 minutes at room temperature for a total of 60 minutes. Media was saved (designated time=1 hour). Samples were then washed extensively by PBS rinsing. Transwells were then placed in a new 6-well plate with fresh media (1 ml) added to the outer well then placed back into 37° C. overnight. The media was then changed at 24 hours and at 48 hours post treatment. Total media collected included time points=−48, 0, 1, 24, and 48 hours. IL-1α production (R&D Systems) was analyzed in a colorimetric assays per manufacturer's protocol. Media was analyzed for lactate dehydrogenase as a marker for cytotoxicity. IL-1α production was assessed as a complementary endpoint to classic cytotoxicity testing to improve predictability of irritants. Keratinocytes normally produce and release inflammatory cytokine IL-1α in response to chemical or physical stress. At 48 hours post treatment (day 12), tissues were either lysed for RNA extraction and subsequent qPCR analysis, or tested for viability by alamar blue assay then rinsed in PBS and fixed with 2% PFA for histological analysis. Alamar blue (Life Technologies) was added per manufacturer's instructions to media and incubated with tissue constructs (1 ml) at 37° C. for 3 hours. […]

[5] = tested on: bioprinted full thickness skin tissue; assay: Skin irritation test, IL-1α production in media, colorimetric assay, 1 hour exposure (Example 4); conditions: 1% for 1 hour
Excerpt: (§2) Bio-ink was generated by a cellular mixture of 100% primary adult human dermal fibroblasts (HDFa) in 8% gelatin (Novogel® 2.0) at a concentration of 100 million cells per milliliter. The cell: gelatin ratio was altered to reduce the cellular density of the dermal sheet to better mimic dermal tissue in native skin. Three-dimensional bio-ink constructs were printed by continuous deposition using the Novogen Bioprinter® platform in a 4 mm×4 mm×0.5 mm base to create a dermal structure resembling a sheet. One tissue construct was printed per transwell in a […]. The transwell printing surface contained a polytetrafluoroethylene (PTFE) membrane coated with equimolar mixture of types I and III collagen (bovine) with pores 3 μm in size. Epidermal cell paste containing a mixture of 100% primary neonatal human epidermal keratinocytes (HEKn) was then printed on top of the dermal bio-ink. Cell paste was measured post print at 87.1% viable by trypan exclusion assay. Cell numbers in the deposited epidermal layer was estimated at 60,000 cells by cell counting on a Cell-O-Meter. Immediately following the print, constructs were placed at 4° C. for 10 minutes. Cold media was then added to the outer well of the transwell in a volume of 3 ml. The media used for subsequent growth and maintenance of the skin tissue was a 50:50 ratio of HDFa:HEKn media. The initial volume added was sufficient to submerge the structure. All subsequent media changes used warmed media (37° C.) added to the outer well of the transwell and not to the inner basket. Media was changed 48 hours later and reduced to a volume of 1.5 ml per well to bring the structure to an air-liquid interface (ALI). Media and subsequently changed 48 hours after that (day 4) at a volume of 1.5 ml. […] IL-1α production (R&D Systems) was analyzed in a colorimetric assays per manufacturer's protocol. Media was analyzed for lactate dehydrogenase as a marker for cytotoxicity. IL-1α production was assessed as a complementary endpoint to classic cytotoxicity testing to improve predictability of irritants. […]

[6] = tested on: bioprinted full thickness skin tissue; assay: Skin irritation test, viability by alamar blue assay, 1 hour exposure (Example 4); conditions: 1% for 1 hour; 48 hours post treatment (day 12)
Excerpt: as §2, with “Cell-O-Meter.” for “Cell-O-Meter. Immediately following the print, constructs were placed at 4° C. for 10 minutes. Cold media was then added to the outer well of the transwell in a volume of 3 ml. The media used for subsequent growth and maintenance of the skin tissue was a 50:50 ratio of HDFa:HEKn media. The initial volume added was sufficient to submerge the structure. All subsequent media changes used warmed media (37° C.) added to the outer well of the transwell and not to the inner basket. Media was changed 48 hours later and reduced to a volume of 1.5 ml per well to bring the structure to an air-liquid interface (ALI). Media and subsequently changed 48 hours after that (day 4) at a volume of 1.5 ml.”

[7] = tested on: bioprinted full thickness skin tissue; assay: Skin irritation test, lactate dehydrogenase (LDH) activity in media, 1 hour exposure (Example 4); conditions: 1% Triton X 100 for 1 hour, apical; at 1 hour, 24 hours and 48 hours post treatment
Excerpt: as §2, with “Cell-O-Meter.” for “Cell-O-Meter. Immediately following the print, constructs were placed at 4° C. for 10 minutes. Cold media was then added to the outer well of the transwell in a volume of 3 ml. The media used for subsequent growth and maintenance of the skin tissue was a 50:50 ratio of HDFa:HEKn media. The initial volume added was sufficient to submerge the structure. All subsequent media changes used warmed media (37° C.) added to the outer well of the transwell and not to the inner basket. Media was changed 48 hours later and reduced to a volume of 1.5 ml per well to bring the structure to an air-liquid interface (ALI). Media and subsequently changed 48 hours after that (day 4) at a volume of 1.5 ml.”

[8] = tested on: bioprinted full thickness skin tissue; assay: Skin irritation test, qPCR gene expression analysis (Example 4); conditions: 1% for 1 hour
Excerpt: Bio-ink was generated by a cellular mixture of 100% primary adult human dermal fibroblasts (HDFa) in 8% gelatin (Novogel® 2.0) at a concentration of 100 million cells per milliliter. The cell: gelatin ratio was altered to reduce the cellular density of the dermal sheet to better mimic dermal tissue in native skin. Three-dimensional bio-ink constructs were printed by continuous deposition using the Novogen Bioprinter® platform in a 4 mm×4 mm×0.5 mm base to create a dermal structure resembling a sheet. One tissue construct was printed per transwell in a […]. The transwell printing surface contained a polytetrafluoroethylene (PTFE) membrane coated with equimolar mixture of types I and III collagen (bovine) with pores 3 μm in size. Epidermal cell paste containing a mixture of 100% primary neonatal human epidermal keratinocytes (HEKn) was then printed on top of the dermal bio-ink. Cell paste was measured post print at 87.1% viable by trypan exclusion assay. Cell numbers in the deposited epidermal layer was estimated at 60,000 cells by cell counting on a Cell-O-Meter. Immediately following the print, constructs were placed at 4° C. for 10 minutes. Cold media was then added to the outer well of the transwell in a volume of 3 ml. The media used for subsequent growth and maintenance of the skin tissue was a 50:50 ratio of HDFa:HEKn media. The initial volume added was sufficient to submerge the structure. All subsequent media changes used warmed media (37° C.) added to the outer well of the transwell and not to the inner basket. Media was changed 48 hours later and reduced to a volume of 1.5 ml per well to bring the structure to an air-liquid interface (ALI). Media and subsequently changed 48 hours after that (day 4) at a volume of 1.5 ml. On day 5, media was changed and further reduced to 1 ml per well and subsequently changed daily. On day 10, skin tissues were subject to a skin irritation test method using 1% Triton X 100. 1% Triton X-100™ is a known irritant and reference chemical currently used in other 3D skin models. Methods were based on OECD guidelines 439 and 431 for applying human skin models to in vitro skin irritation or corrosion, respectively. On day 10, conditioned media was saved (designated time=0) and 1 ml of fresh media was added to the outer well of the transwell. The printed skin tissue was then treated with 20 μl of PBS as a negative control or with 20 μl of 1% Triton X-100™ as a positive control and known irritant. […] IL-1α production (R&D Systems) was analyzed in a colorimetric assays per manufacturer's protocol. Media was analyzed for lactate dehydrogenase as a marker for cytotoxicity. IL-1α production was assessed as a complementary endpoint to classic cytotoxicity testing to improve predictability of irritants. […]

## CCCCCCCCCCCCOS(=O)(=O)[O-].[Na+] [SDS]
[1]
  LDH activity higher than PBS: about 1.7 fold
[2]
  irritant strength under these testing conditions: much stronger irritant
  viable compared to the PBS control (alamar blue): 2.45%
[3]
  IL-1a production: induced
  IL-1a production, response compared between the two irritants: much stronger response

## Triton X-100
[1]; 15 minute exposure, 5% SDS or 1% Triton X, 42 hours post exposure
  LDH activity higher than PBS: about 1.4 fold
[4]
  irritancy to bioprinted skin as suggested by histology: irritant
[4]; 48 hours post treatment
  CK5 positive basal keratinocyte layer: fragmented
  Collagen 3 staining compared to the PBS control: reduction in dermal fibroblast function
  apoptosis by TUNEL staining in the dermal layer: increase in apoptosis
  histological analysis by H&E: separation of the epidermal and dermal layers
[4]; 48 hours post treatment, dermal fibroblasts and basal layer
  proliferation by PCNA staining: reduction in proliferation
[2]; 15 minute exposure, 5% SDS or 1% Triton X, 42 hours post treatment (day 15)
  viable compared to the PBS control (alamar blue): 68.75%
[5]; 24 hours post treatment
  IL-1α levels: remained high
[5]; 48 hours post treatment
  IL-1α levels: returned to baseline
[5]; greatest difference observed 1 hour post treatment
  IL-1α activity in comparison to PBS control: increased
[3]; 15 minute exposure, 5% SDS or 1% Triton X
  IL-1a production: induced
[6]
  reduction in viability as compared to the PBS control: 80%
[7]
  induction in LDH activity compared to PBS control: roughly 2 fold
[8]; 48 hours post exposure
  CK1 and CK10 gene expression: reduced
  collagen production of types 1, 3, and 4 collagen (gene expression): reduced
  expression of both epidermal and dermal markers: dramatically reduces
[8]; 48 hours post treatment
  IL1a gene expression increase in comparison to the PBS control: about 3 fold
